# According to patent publication US20220354825A1, “PHARMACEUTICAL COMPOSITION FOR PREVENTION OR TREATMENT OF INFLAMMATORY DISEASES COMPRISING NAPHTHOQUINONE DERIVATIVE” (LMITO THERAPEUTICS INC., priority 2019, published 2022):
# Key:
# [1] = test system: primary bone marrow-derived macrophages (BMDMs); test: NAD+ measurement in macrophages after LPS/ATP; format: cell-based, C57BL/6 mouse; conditions: LPS/ATP + 1, 5, 10 μM compound
# Method: (§1) The primary bone marrow-derived macrophages (BMDMs) isolated from C57BL/6 mouse were incubated in DMEM medium involving macrophage colony-stimulating factor (M-CSF; R&D Systems, 416-ML) during 3 to 5 days. NAD^+ production and NAD^+/NADH ratio were measured in isolated BMDMs through using NAD/NADH Assay Kit(ab65348) supplied by Abcam company. All assays were performed according to the manufacturer's product manual.
# FIGS. 1 to 5 show NAD^+ changes in the macrophage when treated with compounds 6, 16, 17, 22 and 27 respectively (in order from left in the figure: Untreatment, LPS/ATP, LPS/ATP+1 μM compound, LPS/ATP+5 μM compound, and LPS/ATP+10 μM compound).
# [2] = test system: primary bone marrow-derived macrophages (BMDMs); test: NAD+/NADH measurement in macrophages after LPS/ATP; format: cell-based, C57BL/6 mouse; conditions: LPS/ATP + 1, 5, 10 μM compound
# Method: as §1, with “ratio was” for “ratio were”
# FIGS. 6 to 10 show NAD^+/NADH ratio changes in the macrophage when treated with compounds 6, 16, 17, and 27 respectively (in order from left in the figure: Untreatment, LPS/ATP, LPS/ATP+1 μM compound, LPS/ATP+5 μM compound, and LPS/ATP+10 μM).
# [3] = test system: primary bone marrow-derived macrophages (BMDMs); test: OCR (oxygen consumption rate) measurement, Seahorse XF24; format: cell-based, C57BL/6 mouse; conditions: macrophages after treatment of LPS and ATP
# Method: The primary bone marrow-derived macrophages (BMDMs) isolated from C57BL/6 mouse were incubated in DMEM medium involving macrophage colony-stimulating factor (M-CSF; R&D Systems, 416-ML) during 3 to 5 days. OCR was measured using Seahorse XF24 Extracellular Flux Analyzer in isolated bone marrow-derived macrophages.
# [4] = test system: primary bone marrow-derived macrophages (BMDMs); test: Mitochondrial reactive oxygen species measurement (MitoSox, FACS); format: cell-based, C57BL/6 mouse; conditions: LPS/ATP + 1, 5, 10 μM compound
# Method: The primary bone marrow-derived macrophages (BMDMs) isolated from C57BL/6 mouse were incubated in DMEM medium involving macrophage colony-stimulating factor (M-CSF; R&D Systems, 416-ML) during 3 to 5 days. Isolated BMDMs were stained by 1 μM MitoSox (Molecular Probes M36008) for 15 min. After washing the cells into PBS and collecting the cells, mitochondrial reactive oxygen species was measured by FACS.
# FIGS. 11 and 12 show mitochondrial reactive oxygen species changes in the macrophage when treated with compounds 6 and 27, respectively (in order from left in the figure: Untreatment, LPS/ATP, LPS/ATP+1 μM compound, LPS/ATP+5 μM compound, and LPS/ATP+10 μM compound).
# NQO1 = NQO1 (Homo sapiens, UniProt P15559); test: In vitro NQO1 enzyme activity assay (cytochrome C reduction); format: biochemical; conditions: NQO1 2 ng, Compound 0.2 μM
# Chain of NQO1 (P15559 whole entry, species assumed): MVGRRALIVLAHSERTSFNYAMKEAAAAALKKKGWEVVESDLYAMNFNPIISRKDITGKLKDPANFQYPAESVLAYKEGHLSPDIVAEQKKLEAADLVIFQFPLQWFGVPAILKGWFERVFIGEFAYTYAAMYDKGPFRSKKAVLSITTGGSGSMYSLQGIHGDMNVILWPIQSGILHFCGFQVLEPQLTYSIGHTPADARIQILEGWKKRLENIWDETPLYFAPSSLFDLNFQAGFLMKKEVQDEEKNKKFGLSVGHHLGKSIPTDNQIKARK
# Method: In order to evaluate the enzymatic activities of compounds on NQO1, the experiments were performed as follows:
# A compound to measure NQO1 enzyme activity was dissolved in DMSO to prepare a 10 mM stock solution, which was then diluted with DMSO to prepare a working solution at a concentration of 250 μM. For an enzyme reaction solution, 50 μL of 1.54 mM cytochrome C solution was added to 900 μL of 50 mM Tris-HCl (pH 7.5) solution containing 0.14% BSA, and then the prepared working solution at 250 μM was added. After adding 20 μL of 100 ng/ml NQO1 protein, […] solution was added so as to adjust the total volume to 1 mL, and then the change of absorbance was measured at 550 nm for 10 minutes. The change of absorbance was measured at 550 nm for 10 minutes using 1 mL cuvette. The reaction rate was observed through the increase in absorbance as cytochrome C was reduced at 550 nm for 10 minutes, to obtain an absorbance value, and the activity for NQO1 was measured as the reduced amount of cytochrome C (nmol reduced cytochrome C/min/μg NQO1 protein).
# Absorption coefficient of Cytochrome C: 21.1 (μmol/mL)-1 cm^−1
# Equipment=Cary 100 UV-Vis Spectrophotometer
# [5] = test system: primary bone marrow-derived macrophages (BMDMs); test: ATP measurement in LPS-activated macrophages; format: cell-based, C57BL/6 mouse; conditions: LPS + 1, 5, 10 μM compound
# Method: The primary bone marrow-derived macrophages (BMDMs) isolated from C57BL/6 mouse were incubated in DMEM medium involving macrophage colony-stimulating factor (M-CSF; R&D Systems, 416-ML) during 3 to 5 days. ATP content in the cell was measured through using ATP colorimetric/fluorometric kit after activation of macrophages by treatment of 100 ng/mL LPS in DMEM medium including […]. All assays were performed according to the manufacturer's product manual.
# FIGS. 13 to 17 show the measurement of ATP amounts in the macrophage when treated with Compounds 6, 16, 17, 22 and 27 respectively (in order from left in the figure: Untreatment, LPS/ATP, LPS/ATP+1 μM compound, LPS/ATP+5 μM compound, and LPS/ATP+10 μM compound).
# [6] = test system: DSS-induced acute colitis mouse model; test: Efficacy in ulcerative colitis mouse model (DSS-induced acute colitis); format: in vivo, C57BL/6 female mouse; conditions: 5% DSS for 6 days
# Method: DSS-induced acute colitis mouse model was prepared using 6-week-old C57BL/6 female mouse in the following method from Opal S M et al., Jama., 309(11):1154-1162(2013) and Hotchkiss R S et al., Journal of immunology., 176(9):5471-5477(2006).
# The clinical score in colitis were measured daily for body weight, rectal bleeding, total bleeding loss, and fecal concentration during colitis induction.
# For immunohistochemistry of tissue section, mouse spleen, lung and colon were fixed using 10% formalin and embedded in paraffin. Paraffin sections were cut to a thickness of 4 μm, and H&E(hematoxylin and eosin) staining was performed. The histopathological score was measured in accordance with the criteria described in Osuchowski M F, et al., Journal of Immunology, 177(3):1967-74(2006); and Liu W, et al., Cell Research, 25(6): 691-706(2015).
# The sandwich ELISAs and MPO assay were performed according to conventional methods in this field. TNF-α, IL-6, IL-1β, IL-18 ELISA(sandwich ELISAs) were performed using BD OptEIA ELISA Kit and MPO assay was performed using MPO Activity assay kit(ab105136) of Abcam company.
# The data obtained from independent experiment (means±SD) was analyzed by using two-tailed Student's t-test. The differences were considered significant in p<0.05. For survival comparison, the results were graphically described and analyzed according to kaplan-Meier survival analysis, that is, the product-limit method, using log-rank(Mantel-Cox) tests (Prism, version 5.0, GraphPad Software).
# [7] = colon tissue homogenate, treated during 20 days
# [8] = treated during 10 days, vs non-treated mouse
smiles,measurement,setting,value
CC(C)c1nc2c([nH]1)C(=O)C(=O)c1ccccc1-2 [Compound 27],NAD+ production,[1],increased in dose-dependent manner
same,NAD+/NADH ratio,[2],increased in dose-dependent manner
same,overall mitochondrial OCR,[3],increased
same,mitochondrial reactive oxygen species amounts,[4],decreased in dose-dependent manner
same,NQO1 Activity,NQO1,2269 nmol of reduced Cytochrome C/min/μg NQO1 Protein
same,ATP amounts,[5],increased in dose-dependent manner
same,MPO activity,[6]; [7],decreased
same,"cytokine expressions (TNF-α, IL-6, IL-1β and IL-18, ELISA)",[6]; [7],decreased
same,expressions of sirtuin 1 and sirtuin 7,[6]; [7],significantly increased
same,"histological finding of colon tissue (immunohistochemistry, histological score, H&E)","[6]; treated during 7 days, vs non-treated colon tissue",significantly improved than non-treated colon tissue
same,"colitis clinic scores (body weight, stool consistency, bleeding combined)",[6]; [8],significantly ameliorated compared with non-treated mouse
same,degree of body weight loss,[6]; [8],significantly slower than non-treated mouse
same,survival rates,"[6]; treated during 20 days, vs non-treated mouse",higher than non-treated mouse
